Where two headings read alike, the source gives them in different places. Starred links: 1 amine or outer side, 2 acyl side, 3 side chain; linkers in the order of their positions; H or OH if unused. Non-standard residues stand in square brackets, D forms with d. Groups on a side chain read outwards from the residue. No end group written: not given here. *: point of attachment. C20 diacid = O=C(O)CCCCCCCCCCCCCCCCCCC(=O)*; C18 diacid = O=C(O)CCCCCCCCCCCCCCCCC(=O)*; γGlu = O=C(O)[C@H](CCC(=O)[*:2])N[*:1]; εLys = N[C@@H](CCCCN[*:1])C(=O)[*:2]; AEEA = NCCOCCOCC(=O)O; Aib = CC(C)(N)C(=O)O; Ahx = NCCCCCC(=O)O
Tests used:
hGLP1R = biological target: T1, hGLP1R (Homo sapiens, UniProt P43220); assay: hGLP1R CreLuc reporter gene assay in 0.5% and 100% plasma; assay type: cell-based; conditions: CreLuc reporter gene assay
T1 construct: expressed in transfected cells; host or cells: HEK-293 cells carrying a CRE-luciferase reporter gene
Summary of the method: (§1)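 HEK cells (GLP-1R, NPY2R) or CHO cells (GIPR) carrying a CRE-luciferase reporter, incubated 4 h at 37 °C with peptides in HBSS/20 mM HEPES pH 7.4 plus 0.5% human plasma, or in 100% plasma. Luminescence read; EC50 from 8-point variable-slope sigmoid fits.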

hGIPR = biological target: T2, hGIPR (Homo sapiens, UniProt P48546); assay: hGIPR CreLuc reporter gene assay in 0.5% and 100% plasma; assay type: cell-based; conditions: CreLuc reporter gene assay
T2 construct: expressed in transfected cells; host or cells: CHO cells carrying a CRE-luciferase reporter gene
T2 sequence (P48546 22-466): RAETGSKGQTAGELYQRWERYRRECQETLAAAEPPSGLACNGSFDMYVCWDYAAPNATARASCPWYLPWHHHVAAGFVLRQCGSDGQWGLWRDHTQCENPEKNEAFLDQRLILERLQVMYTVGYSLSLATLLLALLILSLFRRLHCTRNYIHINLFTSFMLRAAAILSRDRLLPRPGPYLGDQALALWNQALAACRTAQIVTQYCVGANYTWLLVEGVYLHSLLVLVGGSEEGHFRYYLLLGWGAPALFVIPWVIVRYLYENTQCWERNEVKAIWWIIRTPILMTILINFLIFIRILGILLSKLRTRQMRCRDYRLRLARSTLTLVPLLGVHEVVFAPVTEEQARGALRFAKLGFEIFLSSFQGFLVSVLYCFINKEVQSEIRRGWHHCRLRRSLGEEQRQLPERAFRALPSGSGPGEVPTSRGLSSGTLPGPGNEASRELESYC
Summary of the method: as §1

hNPY2R = biological target: T3, hNPY2R (Homo sapiens, UniProt P49146); assay: hNPY2R CreLuc reporter gene assay in 0.5% and 100% plasma; assay type: cell-based; conditions: CreLuc reporter gene assay
T3 construct: expressed in transfected cells; host or cells: HEK-293 cells carrying a CRE-luciferase reporter gene
T3 sequence (P49146 1-381): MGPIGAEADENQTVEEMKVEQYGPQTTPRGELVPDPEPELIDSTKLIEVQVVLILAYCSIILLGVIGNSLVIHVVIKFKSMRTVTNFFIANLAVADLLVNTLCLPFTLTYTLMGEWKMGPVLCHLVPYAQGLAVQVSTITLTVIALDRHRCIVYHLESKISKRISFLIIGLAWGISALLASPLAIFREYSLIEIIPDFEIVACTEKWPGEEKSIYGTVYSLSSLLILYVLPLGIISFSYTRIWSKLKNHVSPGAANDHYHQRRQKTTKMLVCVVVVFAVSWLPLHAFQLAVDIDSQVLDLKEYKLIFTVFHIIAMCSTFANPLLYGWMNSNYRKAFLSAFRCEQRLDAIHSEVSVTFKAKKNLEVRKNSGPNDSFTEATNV
Summary of the method: as §1

[1] = Mouse PK after intravenous application; assay type: in vivo; conditions: plasma, mean residence time, intravenous 30-60 nmol/kg, male NMRI mice
Description: Pharmacokinetic parameters of the peptides were determined after intravenous application to NMRI mice. Male NMRI mice were obtained from Janvier Laboratories (France) weighing 30 to 40 g. Mice were housed in standard cages with a 12:12 hour light:dark cycle and standard food and water access ad libitum. Each test peptide was dissolved in 50 mM phosphate buffer (pH 7.4)/3.5% mannitol. Intravenous application of 30-60 nmol/kg was performed via the tail vein. Serial blood samples from conscious mice were collected from the saphenous vein in EDTA-containing vials at different time points up to 56 hours post-dosing. Subsequently, plasma was prepared by centrifugation for 5 min at approximately 5000 rpm and stored at −20° C. until quantification of the peptide plasma levels by liquid chromatography mass spectrometry (LC-MS). Individual plasma concentration—time profiles were analysed by a non-compartmental approach and the resulting pharmacokinetic parameters were calculated.

[2] = 0.5% human plasma, read-out: hGLP1R 0.5% hP
[3] = 100% human plasma, read-out: hGLP1R 100% hP
[4] = 0.5% human plasma, read-out: hGIPR 0.5% hP
[5] = 100% human plasma, read-out: hGIPR 100% hP
[6] = 0.5% human plasma, read-out: hNPY2R 0.5% hP
[7] = 100% human plasma, read-out: hNPY2R 100% hP

T1 sequence (P43220 24-463): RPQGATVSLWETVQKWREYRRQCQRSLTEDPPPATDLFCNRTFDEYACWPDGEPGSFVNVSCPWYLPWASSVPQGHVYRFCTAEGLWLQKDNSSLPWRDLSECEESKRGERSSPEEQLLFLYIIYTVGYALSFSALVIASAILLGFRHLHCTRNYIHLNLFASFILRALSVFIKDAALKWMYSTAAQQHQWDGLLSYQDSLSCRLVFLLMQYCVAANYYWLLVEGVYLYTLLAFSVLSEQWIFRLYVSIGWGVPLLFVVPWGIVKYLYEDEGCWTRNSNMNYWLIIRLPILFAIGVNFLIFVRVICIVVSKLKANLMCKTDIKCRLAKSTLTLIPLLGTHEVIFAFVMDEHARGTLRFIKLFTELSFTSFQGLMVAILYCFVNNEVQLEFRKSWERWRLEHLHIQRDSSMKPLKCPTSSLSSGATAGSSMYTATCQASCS

Compound	EC50 (hGLP1R; [2])	EC50 (hGLP1R; [3])	EC50 (hGIPR; [4])	EC50 (hGIPR; [5])	EC50 (hNPY2R; [6])	MRT [1]	EC50 (hNPY2R; [7])
CC[C@H](C)[C@H](NC(=O)[C@H](CC(C)C)NC(=O)[C@H](Cc1c[nH]c2ccccc12)NC(=O)[C@H](CCC(=O)O)NC(=O)[C@@H](NC(=O)[C@H](Cc1ccccc1)NC(=O)[C@H](C)NC(=O)C(C)(C)NC(=O)[C@H](CCC(N)=O)NC(=O)[C@H](C)NC(=O)[C@H](CCC(N)=O)NC(=O)[C@H](CCCCN)NC(=O)[C@H](CCC(=O)O)NC(=O)[C@H](CC(C)C)NC(=O)C(C)(C)NC(=O)[C@@H](NC(=O)[C@H](CO)NC(=O)[C@H](Cc1ccc(O)cc1)NC(=O)[C@H](CC(=O)O)NC(=O)[C@H](CO)NC(=O)[C@@H](NC(=O)[C@H](Cc1ccccc1)NC(=O)[C@@H](NC(=O)CNC(=O)[C@H](CCC(=O)O)NC(=O)C(C)(C)NC(=O)[C@@H](N)Cc1ccc(O)cc1)[C@@H](C)O)[C@@H](C)O)[C@@H](C)CC)C(C)C)C(=O)N[C@@H](CCCCNC(=O)[C@@H](N)CCCCNC(=O)CC[C@H](NC(=O)CC[C@H](NC(=O)CC[C@H](NC(=O)CC[C@H](NC(=O)CC[C@H](NC(=O)CC[C@H](NC(=O)CCCCCCCCCCCCCCCCCCC(=O)O)C(=O)O)C(=O)O)C(=O)O)C(=O)O)C(=O)O)C(=O)O)C(=O)NCC(=O)NCC(=O)N1CCC[C@H]1C(=O)N[C@@H](CO)C(=O)N[C@@H](CO)C(=O)NCC(=O)N[C@@H](C)C(=O)N[C@@H](CO)C(=O)N[C@@H](CC(C)C)C(=O)N[C@@H](CCCNC(=N)N)C(=O)N[C@@H](Cc1c[nH]cn1)C(=O)N[C@@H](Cc1ccc(O)cc1)C(=O)N[C@@H](Cc1ccc(O)cc1)C(=O)N[C@@H](CC(N)=O)C(=O)N[C@@H](Cc1c[nH]c2ccccc12)C(=O)N[C@@H](CC(C)C)C(=O)N[C@H](C(=O)N[C@@H](CCCNC(=N)N)C(=O)N[C@@H](CCC(N)=O)C(=O)N[C@@H](CCCNC(=N)N)C(=O)N[C@H](Cc1ccc(O)cc1)C(N)=O)[C@@H](C)O [Compound 214, Y-Aib-E-G-T-F-T-S-D-Y-S-I-Aib-L-E-K-Q-A-Q-Aib-A-F-V-E-W-L-I-K(1,3)-GGPSSGASLRHYYNWLTRQR-DTyr-NH2.C20DA-gGlu-gGlu-gGlu-gGlu-gGlu-gGlu-eLys(1,2)]	0.19 nM	2.65 nM	0.23 nM	1.81 nM	> 99.9 nM	10.1 h	
CC[C@H](C)[C@H](NC(=O)[C@H](CC(C)C)NC(=O)[C@H](Cc1c[nH]c2ccccc12)NC(=O)[C@H](CCC(=O)O)NC(=O)[C@@H](NC(=O)[C@H](Cc1ccccc1)NC(=O)[C@H](CCC(=O)O)NC(=O)C(C)(C)NC(=O)[C@H](CCC(N)=O)NC(=O)[C@H](C)NC(=O)[C@H](CCC(N)=O)NC(=O)[C@H](CCCCN)NC(=O)[C@H](CCC(=O)O)NC(=O)[C@H](CC(C)C)NC(=O)C(C)(C)NC(=O)[C@@H](NC(=O)[C@H](CO)NC(=O)[C@H](Cc1ccc(O)cc1)NC(=O)[C@H](CC(=O)O)NC(=O)[C@H](CO)NC(=O)[C@@H](NC(=O)[C@H](Cc1ccccc1)NC(=O)[C@@H](NC(=O)CNC(=O)[C@H](CCC(=O)O)NC(=O)C(C)(C)NC(=O)[C@@H](N)Cc1ccc(O)cc1)[C@@H](C)O)[C@@H](C)O)[C@@H](C)CC)C(C)C)C(=O)N[C@@H](CCCCNC(=O)[C@@H](N)CCCCNC(=O)CC[C@H](NC(=O)CC[C@H](NC(=O)CC[C@H](NC(=O)CC[C@H](NC(=O)CC[C@H](NC(=O)CC[C@H](NC(=O)CCCCCCCCCCCCCCCCC(=O)O)C(=O)O)C(=O)O)C(=O)O)C(=O)O)C(=O)O)C(=O)O)C(=O)NCC(=O)NCC(=O)N1CCC[C@H]1C(=O)N[C@@H](CO)C(=O)N[C@@H](CCC(=O)O)C(=O)NCC(=O)N[C@@H](C)C(=O)N[C@@H](CO)C(=O)N[C@@H](CC(C)C)C(=O)N[C@@H](CCCNC(=N)N)C(=O)N[C@@H](Cc1c[nH]cn1)C(=O)N[C@@H](Cc1ccc(O)cc1)C(=O)N[C@@H](Cc1ccc(O)cc1)C(=O)N[C@@H](CC(N)=O)C(=O)N[C@@H](Cc1c[nH]c2ccccc12)C(=O)N[C@@H](CC(C)C)C(=O)N[C@H](C(=O)N[C@@H](CCCNC(=N)N)C(=O)N[C@@H](CCC(N)=O)C(=O)N[C@@H](CCCNC(=N)N)C(=O)N[C@@H](Cc1ccc(O)cc1)C(N)=O)[C@@H](C)O [Compound 255, Y-Aib-E-G-T-F-T-S-D-Y-S-I-Aib-L-E-K-Q-A-Q-Aib-E-F-V-E-W-L-I-K(1,3)-GGPSEGASLRHYYNWLTRQRY-NH2.C18DA-gGlu-gGlu-gGlu-gGlu-gGlu-gGlu-eLys(1,2)]	0.34 nM		0.46 nM	1.23 nM	17.3 nM	11 h	
Y[Aib]EGTFTSDYSI[Aib]LEKQAQ[Aib]AFVEWLIK([AEEA-AEEA-γGlu-γGlu-γGlu-γGlu-C18 diacid])GGPSEGASLRHYYNWLTRQRY-NH2 [Compound 297, Y-Aib-E-G-T-F-T-S-D-Y-S-I-Aib-L-E-K-Q-A-Q-Aib-A-F-V-E-W-L-I-K(1,3)-GGPSEGASLRHYYNWLTRQRY-NH2.C18DA-gGlu-gGlu-gGlu-gGlu-OEG-OEG(1,2)]	0.12 nM		0.25 nM	0.93 nM		7.5 h	40.5 nM
Y[Aib]EGTFTSDYSI[Aib]LEKQAQ[Aib]AFVQWLIK([γGlu-γGlu-γGlu-γGlu-γGlu-γGlu-C20 diacid])GGPSEGASLRHYYNWLTRQRY-NH2 [Compound 223, Y-Aib-E-G-T-F-T-S-D-Y-S-I-Aib-L-E-K-Q-A-Q-Aib-A-F-V-Q-W-L-I-K(1,3)-GGPSEGASLRHYYNWLTRQRY-NH2.C20DA-gGlu-gGlu-gGlu-gGlu-gGlu-gGlu(1,2)]	0.18 nM	4.39 nM	0.39 nM		13.2 nM	8.8 h	

The next lines start with the values.

EC50 (hGLP1R; [2])	EC50 (hGLP1R; [3])	EC50 (hGIPR; [4])	EC50 (hGIPR; [5])	EC50 (hNPY2R; [6])	MRT [1]	EC50 (hNPY2R; [7])	Compound
0.07 nM		0.22 nM	1.04 nM	18.3 nM	10 h		H-Y[Aib]EGTFTSDYSI[Aib]LEKQAQ[Aib]AFVQWLIK([Ahx-γGlu-γGlu-γGlu-γGlu-γGlu-γGlu-C18 diacid])GGPSSGASLRHYYNWLTRQRY-NH2 [Compound 139, Y-Aib-E-G-T-F-T-S-D-Y-S-I-Aib-L-E-K-Q-A-Q-Aib-A-F-V-Q-W-L-I-K(1,3)-GGPSSGASLRHYYNWLTRQRY-NH2.C18DA-gGlu-gGlu-gGlu-gGlu-gGlu-gGlu-AHX(1,2)]
0.12 nM		0.28 nM	1.23 nM	14.9 nM	13 h		Y[Aib]EGTFTSDYSI[Aib]LEKQAQ[Aib]AFVEWLIK([εLys-γGlu-γGlu-γGlu-γGlu-γGlu-γGlu-γGlu-C20 diacid])GGPSSGASLRHYYNWLTRQRY-NH2 [Compound 225, Y-Aib-E-G-T-F-T-S-D-Y-S-I-Aib-L-E-K-Q-A-Q-Aib-A-F-V-E-W-L-I-K(1,3)-GGPSSGASLRHYYNWLTRQRY-NH2.C20DA-gGlu-gGlu-gGlu-gGlu-gGlu-gGlu-gGlu-eLys(1,2)]
0.13 nM		0.43 nM		10.6 nM	10.2 h	31.6 nM	Y[Aib]EGTFTSDYSI[Aib]LEKQAQ[Aib]AFVQWLIK([εLys-γGlu-γGlu-γGlu-γGlu-γGlu-γGlu-γGlu-C20 diacid])GGPSEGASLRHYYNWLTRQRY-NH2 [Compound 224, Y-Aib-E-G-T-F-T-S-D-Y-S-I-Aib-L-E-K-Q-A-Q-Aib-A-F-V-Q-W-L-I-K(1,3)-GGPSEGASLRHYYNWLTRQRY-NH2.C20DA-gGlu-gGlu-gGlu-gGlu-gGlu-gGlu-gGlu-eLys(1,2)]
